Assays:
mouse DC = experiment: Co-immunoprecipitation with class II IA^b from mouse DC; assay type: cell-based
From the text: In FIG. 5A, the distribution of class II (labeled with APC-conjugated antibody) and CD80/CD86 molecules (labeled with PE-conjugated antibodies) was visualized by FRET following treatment of human monocyte derived DC with B7-DC XAb (open histograms) or with isotype control antibody (filled histograms). For FIG. 5B, mouse bone marrow derived DC were labeled, treated, and analyzed as in FIG. 5A. FIG. 5C indicates the inability of the IA^b specific IgM antibody 25-9-3 (open dark histograms), B7-DC XAb (open light histograms), and isotype control antibody treated samples (filled histograms) to induce FRET (top left and middle panels). Binding of the class II specific IgM antibody to the mouse DC analyzed is shown (top right panel). FIG. 5D indicates the ability of B7-DC-specific IgG antibody (open histograms on left of each panel) or no IgG antibody (open histograms on right of each panel) to inhibit FRET induced by the MTAb B7-DC XAb. Absence of FRET induced by Isotype control antibody is shown in reference (filled histograms). For FIGS. 5E and 5F, immunoprecipitates of membrane proteins from B7-DC XAb or control antibody treated DC were isolated using biotin tagged IA^b-specific KH74 antibody. The precipitates were analyzed by Western blot using mouse-specific TREM-2 and CD40 antibodies as probes. […]

CpG-treated DCs = experiment: Antigen persistence in CpG-treated DCs; assay type: cell-based, mouse; conditions: CpG-treated wild type DCs or B7DC−/− DCs
Description: FIG. 15 is a series of histograms showing restoration of antigen persistence in CpG-treated DCs expressing Kb-peptide constructs upon treatment with the appropriate MTab. DCs were untreated (blue) or treated with 10 ug/mL CpG (red) 48 hours prior to harvesting. They were then pulsed with Ovalbumin-Alexa647 and either hIgM12, hIgM22, or 28-13-3, and Ovalbumin-647 levels were measured in CD11c positive cells by flow cytometry.
The ability of Kb-peptide expressing DCs to alter antigen processing was then tested. Untreated DCs take up fluorochrome-labeled protein, and the fluorochrome labeled protein persists over 24 hours, as measured by flow cytometry. DCs treated with a Toll receptor agonist (LPS, CpG, or Polyl:C) 24 hours prior to addition of protein lose their ability to take up and maintain this antigen. […] The ability of B7DC−/− DCs transduced with the Kb-peptide constructs was compared to wild type DCs or knockouts transduced with B7DC.

[1] = test system: OT-II CD4+CD25+ Treg cells; experiment: Conversion of OT-II Tregs to Th17 phenotype by antibody-treated DCs; assay type: cell-based, mouse
Description: FIG. 16 is a series of plots showing conversion of OT-II CD4 Treg cells to a Th17 phenotype by co-incubation with DCs expressing the Kb-peptide constructs treated with MTabs. OT-II CD4+CD25+ splenic Tregs were isolated by MACS and added 1:1 to DCs pulsed with Ovalbumin and treated with hIgM12, hIgM22, or 28-13-3. After 48 hours, the T cells were harvested, stained with CD4, and internally stained with FoxP3 PE and IL-17 APC. Expression was assayed by flow cytometry, and cells were gated on CD4.
This was measured by loss of FoxP3 expression and gain of IL-17 expression, corresponding to loss of a repressive phenotype and gain of an effector phenotype. Studies were conducted to compare the ability of wild type DCs or B7DC−/− B7DC reconstituted DCs to B7DC−/− transduced with the Kb-peptide constructs to convert Tregs to Th17 polarized T cells. DCs were pulsed with 10 ug/mL ovalbumin and treated with 10 ug/mL of either hIgM12, hIgM22, or 28-13-3, 24 hours prior to addition of T cells. Splenic OT-II Tregs were isolated by MACs and added to DC cultures at a 1:1 ratio. After 48 hours of co-incubation, T cells were harvested, stained with CD4 PerCP, and permeabilized and stained with FoxP3 PE and IL-17 APC. Samples were run by flow cytometry and cells were gated by high CD4 expression. Conversion was measured by loss of FoxP3 expression and gain of IL-17 expression.

Substance: B7-DC XAb: human monoclonal IgM from a Waldenstrom's macroglobulinemia patient that binds and cross-links B7-DC on DC
- association of TREM-2 with class II IA^b by co-immunoprecipitation (mouse DC; lysates 5 minutes after treatment): co-immunoprecipitation of TREM-2 with the class II molecule IA^b
- recruitment of CD40 to the cap, co-precipitation with class II (mouse DC; mouse DC): co-precipitation with class II molecules
- antigen persistence (CpG-treated DCs): restored to untreated levels
- conversion of Tregs to Th17 polarized cells ([1]; knockout DCs expressing Kb-12p9A): responded
- conversion of Tregs to Th17 polarized cells ([1]; wild type DCs and B7DC reconstituted knockouts, 10 ug/mL): converted Tregs to Th17 polarized cells

From patent publication US11274131B2, “IgM-mediated receptor clustering and cell modulation” (MAYO FOUNDATION FOR MEDICAL EDUCATION AND RESEARCH, priority 2007, dated 2022)
